Where two headings read alike, the source gives them in different places. Marks after values point to notes of the source that are not given here.
Legend:
[1] = test system: biomarker (antibody) in serum samples from patients with symptoms of tuberculosis; type: binding, human
wild-type BMDCs = experiment: IL-6 secretion by bone marrow-derived dendritic cells, cytokine-specific ELISA; type: cell-based, mice; conditions: antigens at 100 μg/ml coated on plate, ISO as solvent, FIG. 1
Procedure: The concentrations of cytokines in the cell-free medium from stimulation of bone marrow-derived dendritic cells were determined using standard cytokine-specific ELISA. BMDCs were generated from mice, by flushing out the femurs of mice into complete medium and pipetting vigorously to make a single-cell suspension. The glycolipids were coated to the bottom of 96 micro-well plates (100 μg/ml). BMDCs were added, and after 6 or 48 hours of incubation the supernatants were harvested.
The first experiment was the IL-6 secretion by wild-type BMDCs from mice using compounds B, D, C and H (shown below) as antigens at 100 μg/ml, and isopropyl alcohol (ISO) as a solvent. Commercial trehalose-6,6-dimycolate (TDM), lipopolysaccharides (LPS), and trehalose-6,6-dibehenate (TDB) were used as a controls.

`CCCCCCCCCCCCCCCCCCCCCC[C@@H](C(=O)OC[C@H]1O[C@H](OC)[C@@H](O)[C@@H]1O)[C@H](O)CCCCCCCCCCCCCCC[C@@H]1C[C@@H]1CCCCCCCCCCCCCCCCCCC(=O)C(C)CCCCCCCCCCCCCCCCCC` (stereo partly shown) [Antigen C] was tested, and the “ELISA absorbance at 492 nm” value ([1]; serum sample 1 TB+) was 0.33*, the “ELISA absorbance at 492 nm” value ([1]; serum sample 2 TB+) was 0.26* and the “ELISA absorbance at 492 nm” value ([1]; serum sample 3 TB+) was 0.44*. The “ELISA absorbance at 492 nm” value ([1]; serum sample 4 TB+) was 0.48*, the “ELISA absorbance at 492 nm” value ([1]; serum sample 5 TB+) was 0.40* and the “ELISA absorbance at 492 nm” value ([1]; serum sample 6 TB+) was 0.39*. For the same molecule, the “ELISA absorbance at 492 nm” value ([1]; serum sample 7 TB+) was 1.37*, the “ELISA absorbance at 492 nm” value ([1]; serum sample 8 TB+) was 0.46* and the “ELISA absorbance at 492 nm” value ([1]; serum sample 9 TB+) was 0.35*. The “ELISA absorbance at 492 nm” value ([1]; serum sample 10 TB−) was 0.22, the “ELISA absorbance at 492 nm” value ([1]; serum sample 11 TB−) was 0.20 and the “ELISA absorbance at 492 nm” value ([1]; serum sample 12 TB−) was 0.18. The “ELISA absorbance at 492 nm” value ([1]; serum sample 13 TB−) was 0.24, the “ELISA absorbance at 492 nm” value ([1]; serum sample 14 TB−) was 0.56* and the “ELISA absorbance at 492 nm” value ([1]; serum sample 15 TB−) was 0.22. For the same molecule, the “ELISA absorbance at 492 nm” value ([1]; serum sample 16 TB−) was 0.30*, the “ELISA absorbance at 492 nm” value ([1]; serum sample 17 TB−) was 0.57* and the “ELISA absorbance at 492 nm” value ([1]; serum sample 18 TB−) was 0.32*. The “ELISA absorbance at 492 nm” value ([1]; serum sample 19 TB−) was 0.20, the “ELISA absorbance at 492 nm” value ([1]; serum sample 20 TB−) was 0.41* and the “ELISA absorbance at 492 nm” value ([1]; serum sample 21 TB−) was 0.41*. The “ELISA absorbance at 492 nm” value ([1]; serum sample 22 TB−) was 0.31*, the “ELISA absorbance at 492 nm” value ([1]; serum sample 23 TB−) was 0.27* and the “ELISA absorbance at 492 nm” value ([1]; serum sample 24 TB−) was 0.53*. The “ELISA absorbance at 492 nm” value ([1]; serum sample 25 TB−) was 0.24, the “ELISA absorbance at 492 nm” value ([1]; serum sample 26 TB−) was 0.90* and the “ELISA absorbance at 492 nm” value ([1]; serum sample 27 TB−) was 0.46*. The “ELISA absorbance at 492 nm” value ([1]; serum sample 28 TB−) was 0.42*, the “ELISA absorbance at 492 nm” value ([1]; serum sample 29 TB−) was 0.38* and the “ELISA absorbance at 492 nm” value ([1]; serum sample 30 TB−) was 0.39*. The “ELISA absorbance at 492 nm” value ([1]; serum sample 31 TB−) was 0.51*, the “ELISA absorbance at 492 nm” value ([1]; serum sample 32 TB−) was 1.01* and the “ELISA absorbance at 492 nm” value ([1]; serum sample 33 TB−) was 0.33*. The “ELISA absorbance at 492 nm” value ([1]; serum sample 34 TB−) was 0.52*, the “ELISA absorbance at 492 nm” value ([1]; serum sample 35 TB−) was 0.55* and the “ELISA absorbance at 492 nm” value ([1]; serum sample 36 TB−) was 0.25. The “ELISA absorbance at 492 nm” value ([1]; serum sample 37 TB−) was 0.43*, the “ELISA absorbance at 492 nm” value ([1]; serum sample 38 TB−) was 0.43* and the “ELISA absorbance at 492 nm” value ([1]; serum sample 39 TB−) was 0.34*. For the same molecule, the “ELISA absorbance at 492 nm” value ([1]; serum sample 40 TB−) was 0.26*, the “ELISA absorbance at 492 nm” value ([1]; serum sample 41 TB−) was 0.44* and the “ELISA absorbance at 492 nm” value ([1]; serum sample 42 TB−) was 0.42*. The “ELISA absorbance at 492 nm” value ([1]; serum sample 43 TB−) was 0.32*, the “ELISA absorbance at 492 nm” value ([1]; serum sample 44 TB−) was 1.32* and the “ELISA absorbance at 492 nm” value ([1]; serum sample 45 TB−) was 0.49*. The “ELISA absorbance at 492 nm” value ([1]; serum sample 46 TB−) was 0.28*, the “ELISA absorbance at 492 nm” value ([1]; serum sample 47 TB−) was 0.56* and the “ELISA absorbance at 492 nm” value ([1]; serum sample 48 TB−) was 0.55*. The “ELISA absorbance at 492 nm” value ([1]; serum sample 49 TB−) was 0.79*, the “ELISA absorbance at 492 nm” value ([1]; serum sample 50 TB−) was 0.38* and the “ELISA absorbance at 492 nm” value ([1]; serum sample 51 TB−) was 0.18. For the same molecule, the “ELISA absorbance at 492 nm” value ([1]; serum sample 52 TB−) was 0.32*, the “ELISA absorbance at 492 nm” value ([1]; serum sample 53 TB−) was 0.21 and the “ELISA absorbance at 492 nm” value ([1]; serum sample 54 TB−) was 0.26*. The “ELISA absorbance at 492 nm” value ([1]; serum sample 55 TB−) was 0.31*, the “ELISA absorbance at 492 nm” value ([1]; serum sample 56 TB−) was 0.90* and the “ELISA absorbance at 492 nm” value ([1]; serum sample 57 TB−) was 0.55*. The “ELISA absorbance at 492 nm” value ([1]; serum sample 58 TB−) was 0.44*, the “ELISA absorbance at 492 nm” value ([1]; serum sample 59 TB−) was 0.65* and the “ELISA absorbance at 492 nm” value ([1]; serum sample 60 TB−) was 0.62*. For the same molecule, the “ELISA absorbance at 492 nm” value ([1]; serum sample 61 TB−) was 0.76*, the “ELISA absorbance at 492 nm” value ([1]; serum sample 62 TB−) was 0.19 and the “ELISA absorbance at 492 nm” value ([1]; serum sample 63 TB−) was 0.26*. For the same molecule, the “ELISA absorbance at 492 nm” value ([1]; serum sample 64 TB−) was 0.37* and the “IL-6 secretion by wild-type BMDCs” value (wild-type BMDCs) was “no significant stimulation”.

With `CCCCCCCCCCCCCCCCCCCCCCCC[C@@H](C(=O)OC[C@H]1O[C@H](OC)[C@@H](O)[C@@H]1O)[C@H](O)CCCCCCCCCCCCCCCCC[C@@H]1C[C@@H]1CCCCCCCCCCCCCCCC[C@@H](OC)[C@@H](C)CCCCCCCCCCCCCCCCCC` [Antigen B] the “ELISA absorbance at 492 nm” value ([1]; serum sample 1 TB+) was 0.48*, the “ELISA absorbance at 492 nm” value ([1]; serum sample 2 TB+) was 0.54* and the “ELISA absorbance at 492 nm” value ([1]; serum sample 3 TB+) was 1.10*. For the same molecule, the “ELISA absorbance at 492 nm” value ([1]; serum sample 4 TB+) was 1.00*, the “ELISA absorbance at 492 nm” value ([1]; serum sample 5 TB+) was 0.45* and the “ELISA absorbance at 492 nm” value ([1]; serum sample 6 TB+) was 0.97*. For the same molecule, the “ELISA absorbance at 492 nm” value ([1]; serum sample 7 TB+) was 0.87*, the “ELISA absorbance at 492 nm” value ([1]; serum sample 8 TB+) was 0.97* and the “ELISA absorbance at 492 nm” value ([1]; serum sample 9 TB+) was 0.62*. The “ELISA absorbance at 492 nm” value ([1]; serum sample 10 TB−) was 0.56*, the “ELISA absorbance at 492 nm” value ([1]; serum sample 11 TB−) was 0.64* and the “ELISA absorbance at 492 nm” value ([1]; serum sample 12 TB−) was 0.44. The “ELISA absorbance at 492 nm” value ([1]; serum sample 13 TB−) was 0.56*, the “ELISA absorbance at 492 nm” value ([1]; serum sample 14 TB−) was 0.91* and the “ELISA absorbance at 492 nm” value ([1]; serum sample 15 TB−) was 0.53*. The “ELISA absorbance at 492 nm” value ([1]; serum sample 16 TB−) was 0.52*, the “ELISA absorbance at 492 nm” value ([1]; serum sample 17 TB−) was 0.87* and the “ELISA absorbance at 492 nm” value ([1]; serum sample 18 TB−) was 0.44. The “ELISA absorbance at 492 nm” value ([1]; serum sample 19 TB−) was 0.53*, the “ELISA absorbance at 492 nm” value ([1]; serum sample 20 TB−) was 0.63* and the “ELISA absorbance at 492 nm” value ([1]; serum sample 21 TB−) was 0.42. The “ELISA absorbance at 492 nm” value ([1]; serum sample 22 TB−) was 0.33, the “ELISA absorbance at 492 nm” value ([1]; serum sample 23 TB−) was 0.48* and the “ELISA absorbance at 492 nm” value ([1]; serum sample 24 TB−) was 0.81*. For the same molecule, the “ELISA absorbance at 492 nm” value ([1]; serum sample 25 TB−) was 0.23, the “ELISA absorbance at 492 nm” value ([1]; serum sample 26 TB−) was 0.64* and the “ELISA absorbance at 492 nm” value ([1]; serum sample 27 TB−) was 0.60*. For the same molecule, the “ELISA absorbance at 492 nm” value ([1]; serum sample 28 TB−) was 0.42, the “ELISA absorbance at 492 nm” value ([1]; serum sample 29 TB−) was 0.39 and the “ELISA absorbance at 492 nm” value ([1]; serum sample 30 TB−) was 0.41. The “ELISA absorbance at 492 nm” value ([1]; serum sample 31 TB−) was 0.37, the “ELISA absorbance at 492 nm” value ([1]; serum sample 32 TB−) was 0.68* and the “ELISA absorbance at 492 nm” value ([1]; serum sample 33 TB−) was 0.36. The “ELISA absorbance at 492 nm” value ([1]; serum sample 34 TB−) was 0.47*, the “ELISA absorbance at 492 nm” value ([1]; serum sample 35 TB−) was 0.38 and the “ELISA absorbance at 492 nm” value ([1]; serum sample 36 TB−) was 0.28. The “ELISA absorbance at 492 nm” value ([1]; serum sample 37 TB−) was 0.40, the “ELISA absorbance at 492 nm” value ([1]; serum sample 38 TB−) was 0.44 and the “ELISA absorbance at 492 nm” value ([1]; serum sample 39 TB−) was 0.31. The “ELISA absorbance at 492 nm” value ([1]; serum sample 40 TB−) was 0.28, the “ELISA absorbance at 492 nm” value ([1]; serum sample 41 TB−) was 0.51* and the “ELISA absorbance at 492 nm” value ([1]; serum sample 42 TB−) was 0.49*. The “ELISA absorbance at 492 nm” value ([1]; serum sample 43 TB−) was 0.28, the “ELISA absorbance at 492 nm” value ([1]; serum sample 44 TB−) was 0.60* and the “ELISA absorbance at 492 nm” value ([1]; serum sample 45 TB−) was 0.34. The “ELISA absorbance at 492 nm” value ([1]; serum sample 46 TB−) was 0.27, the “ELISA absorbance at 492 nm” value ([1]; serum sample 47 TB−) was 0.35 and the “ELISA absorbance at 492 nm” value ([1]; serum sample 48 TB−) was 0.29. The “ELISA absorbance at 492 nm” value ([1]; serum sample 49 TB−) was 0.47*, the “ELISA absorbance at 492 nm” value ([1]; serum sample 50 TB−) was 0.31 and the “ELISA absorbance at 492 nm” value ([1]; serum sample 51 TB−) was 0.22. For the same molecule, the “ELISA absorbance at 492 nm” value ([1]; serum sample 52 TB−) was 0.28, the “ELISA absorbance at 492 nm” value ([1]; serum sample 53 TB−) was 0.24 and the “ELISA absorbance at 492 nm” value ([1]; serum sample 54 TB−) was 0.25. For the same molecule, the “ELISA absorbance at 492 nm” value ([1]; serum sample 55 TB−) was 0.27, the “ELISA absorbance at 492 nm” value ([1]; serum sample 56 TB−) was 0.42 and the “ELISA absorbance at 492 nm” value ([1]; serum sample 57 TB−) was 0.40. For the same molecule, the “ELISA absorbance at 492 nm” value ([1]; serum sample 58 TB−) was 0.32, the “ELISA absorbance at 492 nm” value ([1]; serum sample 59 TB−) was 0.30 and the “ELISA absorbance at 492 nm” value ([1]; serum sample 60 TB−) was 0.36. For the same molecule, the “ELISA absorbance at 492 nm” value ([1]; serum sample 61 TB−) was 0.36, the “ELISA absorbance at 492 nm” value ([1]; serum sample 62 TB−) was 0.26 and the “ELISA absorbance at 492 nm” value ([1]; serum sample 63 TB−) was 0.21. The “ELISA absorbance at 492 nm” value ([1]; serum sample 64 TB−) was 2.33* and the “IL-6 secretion by wild-type BMDCs” value (wild-type BMDCs) was “good level of stimulation”.
